Article PMC4195672, “The Red Imported Fire Ant (Solenopsis invicta Buren) Kept Y not F: Predicted sNPY Endogenous Ligands Deorphanize the Short NPF (sNPF) Receptor” (PLoS ONE, 2014)
“Also recorded” adds a separate entry of the source.

Assays:
[1] = test system: S. invicta sNPF receptor (HA-tagged, stably expressed in CHO-K1 cells); experiment: Inhibition of forskolin-stimulated intracellular cAMP in SisNPFR-C6E8 cell line (cAMP EIA); format: cell-based, Solenopsis invicta; settings: for Activity on the receptor (change of forskolin-stimulated cAMP), result in words: forskolin 10 µM, peptide at 1 µM (analogous sNP(F) tested at 10 nM and 1 µM), three biological replicates; for EC50: 50 µM Ro-20-1724, forskolin 10 µM with 0-10 µM peptide (10 concentrations), 1 h, 37°C, three independent biological replicates
Experimental: For the functional characterization of S. invicta sNPFR, stably transformed cell lines were established as described. In brief, CHO-K1 cells were obtained from the American Type Culture Collection (ATCC, Manassas, VA, USA) and grown as described in a 5% CO2 humidified incubator at 37°C. For transfection, CHO-K1 cells were seeded into T-25 tissue culture flasks and allowed to grow overnight until 50% confluent. Cells were transfected in serum-free Opti-MEM medium (Life Technologies, Gaithersburg, MD, USA) with the cationic lipid reagent Lipofectin (Life Technologies) (6 µl) and 2 µg of the expression construct according to the manufacturer’s protocol. After 6 h, the lipofectin-containing medium was removed and replaced with F12K (Sigma, St. Louis, MO, USA) medium plus 10% fetal bovine serum (EquiTech Bio, Kerrville, TX, USA) without antibiotic. After 48 h of growth, the cells were split into the same medium but with antibiotic Geneticin (Invitrogen) (800 µg/ml), and selection continued for 5 weeks followed by isolation of clonal lines. A total of 14 clonal cell lines were obtained by dilution and selection of single cells distributed in a 96-well plate (96 theoretical single cells). Presence of S. invicta sNPFR transcript was verified by screening by RT-PCR by pooling aliquots from clonal cell lines. For this, total RNA was isolated by RNeasy Mini kit (Qiagen) and used for cDNA synthesis with SuperScript III First-Strand Synthesis System followed by RT-PCR with receptor forward sNPFRf1 and reverse sNPFRr1 primers (Table S1). The cell lines from groups that generated the RT-PCR product of the expected size were further screened. Single positive clonal cell lines were subjected to functional assay using S. invicta sNPF1 and sNPF2 as ligands. Cell line C6 was further selected to obtain a line designated SisNPFR-C6E8, which was the best performing cell line and was chosen for receptor functional characterization.
To quantify changes in intracellular cAMP, 1×10^5 cells of SisNPFR-C6E8 were seeded in each well of a 6-well plate and incubated at 37°C in presence of 5% CO2 for 24 h to allow cell attachment. Cell culture medium [F12 K medium with 10% fetal bovine serum and 400 µg/ml of Geneticin] was then replaced with the same fresh medium as above and the cells were grown for additional 48 h until they reached 90–100% confluence. The cells were rinsed twice with F12 K medium only (serum and antibiotic free) and then incubated in 50 µM Ro-20-1724 phosphodiesterase inhibitor (Santa Cruz Biotechnology, Santa Cruz, CA, USA) in F12 K medium. Forskolin (10 µM) (Cayman Chemical, Ann Arbor, MI, USA) or forskolin (10 µM) with 0–10 µM solutions of ligands (10 concentrations), respectively, were added to the cells and incubated at 37°C in the presence of 5% CO2 for 1 h. Cells were rinsed once with F12 K medium, serum- and antibiotic-free, followed by lysis with 274 µl of 0.1 M HCl at RT for 20 min and centrifugation at 1000 g for 10 min. The supernatant was used for cAMP measurements using the cyclic AMP EIA Kit (Cayman Chemical) following the manufacturer’s protocol. In brief, 50 µl of supernatants and cAMP standards were loaded in a 96-well plate, and the cAMP EIA buffer was used as blank. cAMP AChE tracer (50 µl) (cAMP bound to acetylcholinesterase for competition) and 50 µl of anti-cAMP specific antiserum were added. Then the mixture was incubated at 4°C for 18 h. The mixture was removed and the plate was rinsed five times with wash buffer containing 0.05% polysorbate-20. After washing, the plate was developed at RT for 2 h using the Ellman’s reagent and the OD (412 nm) was measured in a VersaMax tunable microplate reader (Molecular Devices, Sunnyvale, CA, USA). cAMP level was calculated using Cayman provided formulas and aided by software located at http://www.myassays.com/(MyAssays Ltd., Haywards Heath, West Sussex, UK) for the output standard line graph and cAMP concentration calculations. […]

[2] = test system: S. invicta sNPF receptor (SisNPFR-C6E8 cell line); experiment: Pilot study: stimulation of intracellular cAMP production in SisNPFR-C6E8 cell line; format: cell-based, Solenopsis invicta
Experimental: To quantify changes in intracellular cAMP, 1×10^5 cells of SisNPFR-C6E8 were seeded in each well of a 6-well plate and incubated at 37°C in presence of 5% CO2 for 24 h to allow cell attachment. Cell culture medium [F12 K medium with 10% fetal bovine serum and 400 µg/ml of Geneticin] was then replaced with the same fresh medium as above and the cells were grown for additional 48 h until they reached 90–100% confluence. The cells were rinsed twice with F12 K medium only (serum and antibiotic free) and then incubated in 50 µM Ro-20-1724 phosphodiesterase inhibitor (Santa Cruz Biotechnology, Santa Cruz, CA, USA) in F12 K medium. […] After washing, the plate was developed at RT for 2 h using the Ellman’s reagent and the OD (412 nm) was measured in a VersaMax tunable microplate reader (Molecular Devices, Sunnyvale, CA, USA). cAMP level was calculated using Cayman provided formulas and aided by software located at http://www.myassays.com/(MyAssays Ltd., Haywards Heath, West Sussex, UK) for the output standard line graph and cAMP concentration calculations. […] For this, the average absorbance readings for non-specific binding (NSB) and B0 wells were obtained, and the NSB average was deducted from the B0 average to generate the corrected B0 maximum binding value. […] The cAMP concentration of each sample was determined on the basis of the standard curve. […]

AQRSPSLRLRFa [Drome sNPF1, Drosophila melanogaster sNPF peptide (AAN11060.1)]
Activity on the receptor (change of forskolin-stimulated cAMP), result in words [1]: not active1 µM

EPEPMARPTRPEIFTSPEELRRYIDHVSDYYLLSGKARYa [Apime NPY, Honey bee (A. mellifera) NPY, long NPF (NP_001161192.1), commercially synthesized]
Activity on the receptor (change of forskolin-stimulated cAMP), result in words [1]: failed to change the cAMP production; also recorded: not active1 µM
Activity on the receptor (change of forskolin-stimulated cAMP), result in words ([1]; listed as honey bee long NPF (NPY)): not activated

SALAAGHLRYa [S. invicta sNPF2]
Stimulation of intracellular cAMP production (without forskolin), result in words [2]: did not stimulate production of intracellular cAMP
EC50 [1]: 8.6 nM

SLRSALAAGHLRFa [Analogous sNP(F), Analog of S. invicta sNPF1 with C-terminal amidated Y switched to F]
Activity on the receptor (change of forskolin-stimulated cAMP), result in words [1]: eliminates the ligand activity on the receptor

SLRSALAAGHLRYa [S. invicta sNPF1]
Stimulation of intracellular cAMP production (without forskolin), result in words [2]: did not stimulate production of intracellular cAMP
EC50 [1]: 3.28 nM
Activity on the receptor (change of forskolin-stimulated cAMP), result in words [1]: decreased cAMP

SPSLRLRFa [Drome sNPF212–19]
Activity on the receptor (change of forskolin-stimulated cAMP), result in words [1]: not active1 µM

WFGDVNQKPIRSPSLRLRFa [Drome sNPF2, Drosophila melanogaster sNPF peptide (AAN11060.1)]
Activity on the receptor (change of forskolin-stimulated cAMP), result in words [1]: not active1 µM
